Test results published in patent publication US10125138B2, “Triazolotriazinone derivatives having activity a s herbicides” (Syngenta Participations AG, priority 2015, dated 2018).

What was measured:
Assay type in all cases: in vivo
Conditions in all cases: 1000 g/h, evaluated after 13 days, five point scale
Lolium perenne (LOLPE) [1] = assay: Post-emergence glasshouse herbicide test, Lolium perenne
Procedure: (§1) Seeds of a variety of test species are sown in standard soil in pots (Lolium perenne (LOLPE), Solanum nigrum (SOLNI), Amaranthus retoflexus (AMARE), Setaria faberi (SETFA), Echinochloa crus-galli (ECHCG), Ipomoea hederacea (IPOHE)). After cultivation for one day (pre-emergence) or after 8 days cultivation (post-emergence) under controlled conditions in a glasshouse (at 24/16° C., day/night; 14 hours light; 65% humidity), the plants are sprayed with an aqueous spray solution derived from the formulation of the technical active ingredient in acetone/water (50:50) solution containing 0.5% Tween 20 (polyoxyethelyene sorbitan monolaurate, CAS RN 9005-64-5). […] The test plants are then grown in a glasshouse under controlled conditions in a glasshouse (at 24/16° C., day/night; 14 hours light; 65% humidity) and watered twice daily. After 13 days for pre and post-emergence, the test is evaluated for the percentage damage caused to the plant. The biological activities are shown in the following table on a five point scale (5=80-100%; 4=60-79%; 3=40-59%; 2=20-39%; 1=0-19%).

Solanum nigrum (SOLNI) [2] = assay: Post-emergence glasshouse herbicide test, Solanum nigrum
Procedure: (§2) Seeds of a variety of test species are sown in standard soil in pots (Lolium perenne (LOLPE), Solanum nigrum (SOLNI), Amaranthus retoflexus (AMARE), Setaria faberi (SETFA), Echinochloa crus-galli (ECHCG), Ipomoea hederacea (IPOHE)). After cultivation for one day (pre-emergence) or after 8 days cultivation (post-emergence) under controlled conditions in a glasshouse (at 24/16° C., day/night; 14 hours light; 65% humidity), the plants are sprayed with an aqueous spray solution derived from the formulation of the technical active ingredient in acetone/water (50:50) solution containing 0.5% Tween 20 (polyoxyethelyene sorbitan monolaurate, CAS RN 9005-64-5). Compounds are applied at 1000 g/h. The test plants are then grown in a glasshouse under controlled conditions in a glasshouse (at 24/16° C., day/night; 14 hours light; 65% humidity) and watered twice daily. After 13 days for pre and post-emergence, the test is evaluated for the percentage damage caused to the plant. The biological activities are shown in the following table on a five point scale (5=80-100%; 4=60-79%; 3=40-59%; 2=20-39%; 1=0-19%).

[3] = test system: Amaranthus retoflexus (AMARE); assay: Post-emergence glasshouse herbicide test, Amaranthus retoflexus
Procedure: as §1

Setaria faberi (SETFA) [4] = assay: Post-emergence glasshouse herbicide test, Setaria faberi
Procedure: as §1

[5] = test system: Echinochloa crus-galli (ECHCG); assay: Post-emergence glasshouse herbicide test, Echinochloa crus-galli
Procedure: as §1

[6] = test system: Ipomoea hederacea (IPOHE); assay: Post-emergence glasshouse herbicide test, Ipomoea hederacea
Procedure: as §1

Lolium perenne (LOLPE) [7] = assay: Pre-emergence glasshouse herbicide test, Lolium perenne
Procedure: as §1

Solanum nigrum (SOLNI) [8] = assay: Pre-emergence glasshouse herbicide test, Solanum nigrum
Procedure: as §2

[9] = test system: Amaranthus retoflexus (AMARE); assay: Pre-emergence glasshouse herbicide test, Amaranthus retoflexus
Procedure: as §1

Setaria faberi (SETFA) [10] = assay: Pre-emergence glasshouse herbicide test, Setaria faberi
Procedure: as §1

[11] = test system: Echinochloa crus-galli (ECHCG); assay: Pre-emergence glasshouse herbicide test, Echinochloa crus-galli
Procedure: as §1

[12] = test system: Ipomoea hederacea (IPOHE); assay: Pre-emergence glasshouse herbicide test, Ipomoea hederacea
Procedure: as §1

| SMILES | percentage damage caused to the plant, POST Application LOLPE (Lolium perenne (LOLPE) [1]) | percentage damage caused to the plant, POST Application SOLNI (Solanum nigrum (SOLNI) [2]) | percentage damage caused to the plant, POST Application AMARE [3] | percentage damage caused to the plant, POST Application SETFA (Setaria faberi (SETFA) [4]) | percentage damage caused to the plant, POST Application ECHCG [5] | percentage damage caused to the plant, POST Application IPOHE [6] | percentage damage caused to the plant, PRE Application LOLPE (Lolium perenne (LOLPE) [7]) | percentage damage caused to the plant, PRE Application SOLNI (Solanum nigrum (SOLNI) [8]) | percentage damage caused to the plant, PRE Application AMARE [9] | percentage damage caused to the plant, PRE Application SETFA (Setaria faberi (SETFA) [10]) | percentage damage caused to the plant, PRE Application ECHCG [11] | percentage damage caused to the plant, PRE Application IPOHE [12] |
| --- | --- | --- | --- | --- | --- | --- | --- | --- | --- | --- | --- | --- |
| Cn1nnnc1NC(=O)c1nn2cnn(-c3ccccc3)c2nc1=O [Compound 1.001] | 3 (3=40-59%) | 5 (5=80-100%) | 5 (5=80-100%) | 5 (5=80-100%) | 5 (5=80-100%) | 5 (5=80-100%) | 3 (3=40-59%) | 5 (5=80-100%) | 5 (5=80-100%) | 5 (5=80-100%) | 5 (5=80-100%) | 4 (4=60-79%) |
| Cn1nnnc1NC(=O)c1nn2cnn(-c3ccc(F)cc3)c2nc1=O [Compound 1.002] | 5 (5=80-100%) | 5 (5=80-100%) | 5 (5=80-100%) | 5 (5=80-100%) | 5 (5=80-100%) | 5 (5=80-100%) | 4 (4=60-79%) | 5 (5=80-100%) | 5 (5=80-100%) | 5 (5=80-100%) | 5 (5=80-100%) | 5 (5=80-100%) |
| COc1ccc(-n2ncn3nc(C(=O)Nc4nnnn4C)c(=O)nc23)cc1 [Compound 1.003] | 4 (4=60-79%) | 5 (5=80-100%) | 5 (5=80-100%) | 5 (5=80-100%) | 5 (5=80-100%) | 5 (5=80-100%) | 4 (4=60-79%) | 5 (5=80-100%) | 5 (5=80-100%) | 5 (5=80-100%) | 5 (5=80-100%) | 5 (5=80-100%) |
| CCCn1ncn2nc(C(=O)Nc3nnnn3C)c(=O)nc12 [Compound 1.007] | 3 (3=40-59%) | 5 (5=80-100%) | 5 (5=80-100%) | 5 (5=80-100%) | 5 (5=80-100%) | 5 (5=80-100%) | 4 (4=60-79%) | 5 (5=80-100%) | 5 (5=80-100%) | 5 (5=80-100%) | 5 (5=80-100%) | 4 (4=60-79%) |
| Cn1nnnc1NC(=O)c1nn2cnn(CCCC(F)(F)F)c2nc1=O [Compound 1.011] | 3 (3=40-59%) | 4 (4=60-79%) | 5 (5=80-100%) | 5 (5=80-100%) | 5 (5=80-100%) | 5 (5=80-100%) | 2 (2=20-39%) | 4 (4=60-79%) | 5 (5=80-100%) | 5 (5=80-100%) | 4 (4=60-79%) | 4 (4=60-79%) |
| CCn1nnnc1NC(=O)c1nn2cnn(-c3ccccc3)c2nc1=O [Compound 1.013] | 5 (5=80-100%) | 5 (5=80-100%) | 5 (5=80-100%) | 5 (5=80-100%) | 5 (5=80-100%) | 5 (5=80-100%) | 5 (5=80-100%) | 5 (5=80-100%) | 5 (5=80-100%) | 5 (5=80-100%) | 5 (5=80-100%) | 5 (5=80-100%) |
| CCCn1nnnc1NC(=O)c1nn2cnn(-c3ccccc3)c2nc1=O [Compound 1.014] | 5 (5=80-100%) | 5 (5=80-100%) | 5 (5=80-100%) | 5 (5=80-100%) | 5 (5=80-100%) | 5 (5=80-100%) | 5 (5=80-100%) | 5 (5=80-100%) | 5 (5=80-100%) | 5 (5=80-100%) | 5 (5=80-100%) | 5 (5=80-100%) |
| Cn1nnnc1NC(=O)c1nn2cnn(-c3cccc(Cl)c3)c2nc1=O [Compound 1.018] | 4 (4=60-79%) | 5 (5=80-100%) | 5 (5=80-100%) | 5 (5=80-100%) | 5 (5=80-100%) | 5 (5=80-100%) | 3 (3=40-59%) | 5 (5=80-100%) | 4 (4=60-79%) | 5 (5=80-100%) | 5 (5=80-100%) | 5 (5=80-100%) |
| Cn1nnnc1NC(=O)c1nn2cnn(-c3ccc(C(F)(F)F)cc3)c2nc1=O [Compound 1.022] | 3 (3=40-59%) | 5 (5=80-100%) | 5 (5=80-100%) | 5 (5=80-100%) | 5 (5=80-100%) | 4 (4=60-79%) | 4 (4=60-79%) | 5 (5=80-100%) | 5 (5=80-100%) | 5 (5=80-100%) | 5 (5=80-100%) | 4 (4=60-79%) |
| Cc1cccc(-n2ncn3nc(C(=O)Nc4nnnn4C)c(=O)nc23)c1 [Compound 1.026] | 4 (4=60-79%) | 5 (5=80-100%) | 5 (5=80-100%) | 5 (5=80-100%) | 5 (5=80-100%) | 5 (5=80-100%) | 5 (5=80-100%) | 5 (5=80-100%) | 5 (5=80-100%) | 5 (5=80-100%) | 5 (5=80-100%) | 4 (4=60-79%) |
